4 compounds from patent US5399543A, “3-[4-(phenylmethoxy)phenyl]-1-substituted-6-haloalkyl-uracil herbicides” (FMC Corporation, priority 1993, dated 1995) can be followed below.

SMILES strings stand for the structures.

The subject of experiment [1] is Green foxtail. As to the kind of experiment: Postemergence herbicidal activity, green foxtail. The format is in vivo. The conditions noted are these: Setaria viridis, post-emergence, 0.3 kg/ha, after 17-21 days, read-out: Postemergence herbicidal activity (% control), Green foxtail. A digest of the protocol:
(§1)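 Seeds sown in sandy loam flats; postemergence flats planted 8–12 days earlier and grown in greenhouse. Compound in water/acetone (50/50) with 0.5% sorbitan monolaurate sprayed at 1000 L/ha over soil (pre) or foliage (post). Phytotoxicity scored as percent control (0–100) after 17–21 days.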

The test system of experiment [2] is Wheat. As to the kind of experiment: Preemergence herbicidal activity, wheat. The settings on record: Triticum aestivum, pre-emergence, 0.3 kg/ha, after 17-21 days, read-out: Preemergence herbicidal activity (% control), Wheat. The class given is in vivo, Triticum aestivum var. Wheaton. In outline:
as §1

Experiment [3] has as its system Morningglory. Kind of experiment: Preemergence herbicidal activity, morningglory. The class given is in vivo, Ipomea lacunosa or Ipomea hederacea. The conditions noted are these: Ipomoea, pre-emergence, 0.3 kg/ha, after 17-21 days, read-out: Preemergence herbicidal activity (% control), Morningglory. In outline:
as §1

Experiment [4] deals with Corn. As to the kind of experiment: Preemergence herbicidal activity, corn. The format is in vivo, Zea mays var. Agway 425X. The conditions noted are these: Zea mays, pre-emergence, 0.3 kg/ha, after 17-21 days, read-out: Preemergence herbicidal activity (% control), Corn. A digest of the protocol:
as §1

For experiment [5], the system named is Soybean. Kind of experiment: Postemergence herbicidal activity, soybean. The class given is in vivo, Glycine max var. Williams. The conditions noted are these: Glycine max, post-emergence, 0.3 kg/ha, after 17-21 days, read-out: Postemergence herbicidal activity (% control), Soybean. A digest of the protocol: as §1
Experiment [6] concerns Green foxtail. As to the kind of experiment: Preemergence herbicidal activity, green foxtail. The class given is in vivo. The conditions noted are these: Setaria viridis, pre-emergence, 0.3 kg/ha, after 17-21 days, read-out: Preemergence herbicidal activity (% control), Green foxtail. A digest of the protocol:
as §1

Experiment [7] concerns Cocklebur. As to the kind of experiment: Preemergence herbicidal activity, cocklebur. The class given is in vivo, Xanthium pensylvanicum. The conditions noted are these: Xanthium strumarium, pre-emergence, 0.3 kg/ha, after 17-21 days, read-out: Preemergence herbicidal activity (% control), Cocklebur. In outline: as §1
In experiment [8] the test system is Soybean. As to the kind of experiment: Preemergence herbicidal activity, soybean. The conditions noted are these: Glycine max, pre-emergence, 0.3 kg/ha, after 17-21 days, read-out: Preemergence herbicidal activity (% control), Soybean. The class given is in vivo, Glycine max var. Williams. In outline:
as §1

For experiment [9], the system named is Velvetleaf. As to the kind of experiment: Postemergence herbicidal activity, velvetleaf. The conditions noted are these: Abutilon theophrasti, post-emergence, 0.3 kg/ha, after 17-21 days, read-out: Postemergence herbicidal activity (% control), Velvetleaf. The format is in vivo. A digest of the protocol:
as §1

The subject of experiment [10] is Blackgrass. Kind of experiment: Postemergence herbicidal activity, blackgrass. The format is in vivo, Aloepecurus myosuroides. The settings on record: Alopecurus myosuroides, post-emergence, 0.3 kg/ha, after 17-21 days, read-out: Postemergence herbicidal activity (% control), Blackgrass. In outline:
as §1

The subject of experiment [11] is Morningglory. As to the kind of experiment: Postemergence herbicidal activity, morningglory. The conditions noted are these: Ipomoea, post-emergence, 0.3 kg/ha, after 17-21 days, read-out: Postemergence herbicidal activity (% control), Morningglory. The format is in vivo, Ipomea lacunosa or Ipomea hederacea. In outline:
as §1

Experiment [12] deals with Chickweed. Kind of experiment: Preemergence herbicidal activity, chickweed. The class given is in vivo. The settings on record: Stellaria media, pre-emergence, 0.3 kg/ha, after 17-21 days, read-out: Preemergence herbicidal activity (% control), Chickweed. In outline: as §1
In experiment [13] the test system is Wheat. Kind of experiment: Postemergence herbicidal activity, wheat. The conditions noted are these: Triticum aestivum, post-emergence, 0.3 kg/ha, after 17-21 days, read-out: Postemergence herbicidal activity (% control), Wheat. The format is in vivo, Triticum aestivum var. Wheaton. A digest of the protocol: as §1
Experiment [14] deals with Cocklebur. Kind of experiment: Postemergence herbicidal activity, cocklebur. The format is in vivo, Xanthium pensylvanicum. The conditions noted are these: Xanthium strumarium, post-emergence, 0.3 kg/ha, after 17-21 days, read-out: Postemergence herbicidal activity (% control), Cocklebur. In outline:
as §1

Experiment [15] concerns Velvetleaf. Kind of experiment: Preemergence herbicidal activity, velvetleaf. The class given is in vivo. The settings on record: Abutilon theophrasti, pre-emergence, 0.3 kg/ha, after 17-21 days, read-out: Preemergence herbicidal activity (% control), Velvetleaf. In outline: as §1
The test system of experiment [16] is Johnsongrass. Kind of experiment: Postemergence herbicidal activity, johnsongrass. The format is in vivo. The settings on record: Sorghum halepense, post-emergence, 0.3 kg/ha, after 17-21 days, read-out: Postemergence herbicidal activity (% control), Johnsongrass. In outline: as §1
The subject of experiment [17] is Chickweed. Kind of experiment: Postemergence herbicidal activity, chickweed. The class given is in vivo. The settings on record: Stellaria media, post-emergence, 0.3 kg/ha, after 17-21 days, read-out: Postemergence herbicidal activity (% control), Chickweed. In outline:
as §1

For experiment [18], the system named is Corn. As to the kind of experiment: Postemergence herbicidal activity, corn. The format is in vivo, Zea mays var. Agway 425X. The settings on record: Zea mays, post-emergence, 0.3 kg/ha, after 17-21 days, read-out: Postemergence herbicidal activity (% control), Corn. In outline: as §1
Experiment [19] concerns Blackgrass. As to the kind of experiment: Preemergence herbicidal activity, blackgrass. The class given is in vivo, Aloepecurus myosuroides. The settings on record: Alopecurus myosuroides, pre-emergence, 0.3 kg/ha, after 17-21 days, read-out: Preemergence herbicidal activity (% control), Blackgrass. In outline: as §1
For experiment [20], the system named is Johnsongrass. As to the kind of experiment: Preemergence herbicidal activity, johnsongrass. The class given is in vivo. The settings on record: Sorghum halepense, pre-emergence, 0.3 kg/ha, after 17-21 days, read-out: Preemergence herbicidal activity (% control), Johnsongrass. In outline:
as §1

As to `Cn1c(C(F)(F)F)cc(=O)n(-c2ccc(OCc3cccc(Cl)c3)cc2)c1=O` [Compound 3], the activity at 300 g/ha in [1] was 95%; in [2] it was 0%; in experiment [3], 10%; in experiment [4], 10%; in experiment [5], 45%; in experiment [6], 95%. Moreover, the activity at 300 g/ha in experiment [7] stood at 0%; in experiment [8] it was 10%; in experiment [9] it was 100%; in experiment [10] it was 0%; in experiment [11] it was 90%; in experiment [12], 0%. The activity at 300 g/ha was found to be 10% in experiment [13]; 100% in [14]; 80% in experiment [15]; 90% in experiment [16]; 70% in [17]; 60% in experiment [18]. Also, the activity at 300 g/ha in [19] amounted to 0%; in experiment [20] it was 20%.

`Cn1c(C(F)(F)F)cc(=O)n(-c2ccc(OCc3ccccc3Cl)cc2)c1=O` [Compound 2]: the activity at 300 g/ha in experiment [1] was 85%; in experiment [2], 5%; in experiment [3], 60%; in experiment [4], 15%; in experiment [5] it was 60%; in experiment [6] it was 100%. Further, the activity at 300 g/ha came to 10% in experiment [7]; 20% in experiment [8]; 80% in experiment [9]; 0% in experiment [10]; 60% in [11]; 0% in experiment [12]. Also, the activity at 300 g/ha in [13] is 0%; in experiment [14], 30%; in experiment [15] it was 100%; in experiment [16], 10%; in experiment [17], 0%; in [18], 45%. The values for the activity at 300 g/ha in experiment [19] and in experiment [20] were 0% and 70%, respectively.

Take `COc1ccccc1COc1ccc(-n2c(=O)cc(C(F)(F)F)n(C)c2=O)cc1` [Compound 40]: the activity at 300 g/ha in experiment [1] stood at 100%; in [2], 20%; in experiment [3] it was 100%; in [4], 75%; in experiment [5] it was 90%; in experiment [6], 100%. Besides, the activity at 300 g/ha amounted to 20% in [7]; 50% in experiment [8]; 100% in experiment [9]; 10% in experiment [10]; 90% in experiment [11]; 80% in experiment [12]. In addition, the activity at 300 g/ha was 20% in experiment [13]; 100% in [14]; 100% in experiment [15]; 90% in [16]; 15% in experiment [17]; 50% in [18]. Further, the activity at 300 g/ha turned out to be 30% in experiment [19] and 100% in [20].

With `Cc1cc(OCc2ccc(Cl)cc2)ccc1-n1c(=O)cc(C(F)(F)F)n(C)c1=O` [Compound 13], the activity at 300 g/ha in experiment [1] was 80%; in [2], 0%; in experiment [3], 60%; in experiment [4], 30%; in experiment [5], 30%; in [6], 100%. For the same compound, the activity at 300 g/ha stood at 0% in [7]; 40% in experiment [8]; 100% in experiment [9]; 20% in [10]; 100% in experiment [11]; 10% in experiment [12]. For the same compound, the activity at 300 g/ha in experiment [13] was found to be 0%; in experiment [14], 90%; in experiment [15] it was 100%; in experiment [16], 20%; in experiment [17], 30%; in [18], 40%. Also, the activity at 300 g/ha in [19] amounted to 30%; in [20], 90%.
